{"source": "patent EP0055702B1", "about": "“Antithrombotic treatment” (priority 1980, dated 1982)", "key": {"human plasma": {"system": "human plasma", "assay": "Blood coagulation factors by standard procedures (Biggs), human plasma", "type": "biochemical", "details": "5 mg/ml", "description": "The effect of U.S.P. grade sodium bisulphite on blood coagulation factors was evaluated by standard procedures (Biggs) and the results are shown in Table III below.\nThe effect is directly proportional to dose."}, "Factor V": {"target": "T1, Factor V (Homo sapiens, UniProt P12259)", "T1 construct": "from tissue; host or cells: human plasma", "T1 sequence (P12259 29-2224)": "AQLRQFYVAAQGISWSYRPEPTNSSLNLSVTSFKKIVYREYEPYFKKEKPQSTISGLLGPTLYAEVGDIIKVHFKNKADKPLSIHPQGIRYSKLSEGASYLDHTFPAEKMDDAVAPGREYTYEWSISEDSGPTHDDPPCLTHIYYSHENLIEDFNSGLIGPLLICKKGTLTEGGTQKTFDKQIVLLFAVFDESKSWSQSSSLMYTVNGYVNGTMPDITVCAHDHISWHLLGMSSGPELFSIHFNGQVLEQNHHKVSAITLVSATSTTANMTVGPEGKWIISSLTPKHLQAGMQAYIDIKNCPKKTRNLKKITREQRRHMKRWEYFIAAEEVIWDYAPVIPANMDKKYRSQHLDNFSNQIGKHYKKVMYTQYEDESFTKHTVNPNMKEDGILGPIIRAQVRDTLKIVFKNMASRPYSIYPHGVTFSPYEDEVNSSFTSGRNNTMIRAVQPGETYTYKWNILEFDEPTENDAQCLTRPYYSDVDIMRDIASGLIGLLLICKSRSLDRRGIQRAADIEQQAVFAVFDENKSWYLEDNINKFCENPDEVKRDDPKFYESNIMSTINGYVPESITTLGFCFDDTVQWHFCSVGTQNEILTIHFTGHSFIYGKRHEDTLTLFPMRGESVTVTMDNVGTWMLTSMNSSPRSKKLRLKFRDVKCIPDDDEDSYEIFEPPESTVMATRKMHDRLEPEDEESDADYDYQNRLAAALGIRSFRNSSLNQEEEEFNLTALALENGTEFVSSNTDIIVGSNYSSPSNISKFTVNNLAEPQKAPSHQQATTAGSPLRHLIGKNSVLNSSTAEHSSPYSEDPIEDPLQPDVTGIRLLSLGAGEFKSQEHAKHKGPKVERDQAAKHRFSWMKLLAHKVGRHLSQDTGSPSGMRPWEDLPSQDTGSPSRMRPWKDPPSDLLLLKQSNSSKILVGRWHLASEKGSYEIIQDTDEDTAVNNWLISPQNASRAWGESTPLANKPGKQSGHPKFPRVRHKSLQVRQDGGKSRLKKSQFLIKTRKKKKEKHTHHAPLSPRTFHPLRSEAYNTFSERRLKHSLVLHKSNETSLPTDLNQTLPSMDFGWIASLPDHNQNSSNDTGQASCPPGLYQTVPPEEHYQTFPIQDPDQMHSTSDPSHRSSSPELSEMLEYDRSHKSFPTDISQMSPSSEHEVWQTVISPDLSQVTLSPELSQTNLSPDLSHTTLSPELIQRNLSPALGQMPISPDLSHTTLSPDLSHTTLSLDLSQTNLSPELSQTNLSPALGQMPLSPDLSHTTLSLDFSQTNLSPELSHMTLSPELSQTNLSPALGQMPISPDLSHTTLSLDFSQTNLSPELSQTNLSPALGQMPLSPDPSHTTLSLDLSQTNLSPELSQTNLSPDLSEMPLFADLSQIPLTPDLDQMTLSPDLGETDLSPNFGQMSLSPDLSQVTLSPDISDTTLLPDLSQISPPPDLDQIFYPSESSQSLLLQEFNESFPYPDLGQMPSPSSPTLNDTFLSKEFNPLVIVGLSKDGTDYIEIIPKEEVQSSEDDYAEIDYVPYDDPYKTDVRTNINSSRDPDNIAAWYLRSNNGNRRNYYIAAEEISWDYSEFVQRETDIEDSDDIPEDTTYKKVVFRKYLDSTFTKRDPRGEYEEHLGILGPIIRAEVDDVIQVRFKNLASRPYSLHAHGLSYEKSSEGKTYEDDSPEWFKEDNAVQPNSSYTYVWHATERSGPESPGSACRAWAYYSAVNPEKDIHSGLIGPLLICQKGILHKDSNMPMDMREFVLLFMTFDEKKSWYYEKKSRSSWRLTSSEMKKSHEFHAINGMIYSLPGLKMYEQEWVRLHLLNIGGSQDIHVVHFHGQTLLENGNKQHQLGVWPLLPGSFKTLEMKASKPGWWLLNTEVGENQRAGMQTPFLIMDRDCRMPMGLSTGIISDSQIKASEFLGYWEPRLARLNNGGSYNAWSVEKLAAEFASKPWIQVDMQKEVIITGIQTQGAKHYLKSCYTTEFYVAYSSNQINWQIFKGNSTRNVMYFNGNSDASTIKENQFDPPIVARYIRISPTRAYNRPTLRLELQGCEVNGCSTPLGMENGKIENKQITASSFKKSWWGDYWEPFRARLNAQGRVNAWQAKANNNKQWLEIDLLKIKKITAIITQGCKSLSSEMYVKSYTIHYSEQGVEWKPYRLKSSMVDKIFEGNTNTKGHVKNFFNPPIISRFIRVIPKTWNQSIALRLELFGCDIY", "assay": "Factor V assay, Example 4", "type": "biochemical", "details": "Control 75", "source_text": "(§1) The evaluation procedure used is that described in \"Human Blood Coagulation, Haemostasis and Thrombosis\", edited by Rosemary Biggs, published by Blackwell Scientific Publications, Oxford, England (2nd Edition), pages 670-705, 1976. […]"}, "F XI": {"target": "T2, F XI (Homo sapiens, UniProt P03951)", "T2 construct": "from tissue; host or cells: human plasma", "T2 sequence (P03951 19-625)": "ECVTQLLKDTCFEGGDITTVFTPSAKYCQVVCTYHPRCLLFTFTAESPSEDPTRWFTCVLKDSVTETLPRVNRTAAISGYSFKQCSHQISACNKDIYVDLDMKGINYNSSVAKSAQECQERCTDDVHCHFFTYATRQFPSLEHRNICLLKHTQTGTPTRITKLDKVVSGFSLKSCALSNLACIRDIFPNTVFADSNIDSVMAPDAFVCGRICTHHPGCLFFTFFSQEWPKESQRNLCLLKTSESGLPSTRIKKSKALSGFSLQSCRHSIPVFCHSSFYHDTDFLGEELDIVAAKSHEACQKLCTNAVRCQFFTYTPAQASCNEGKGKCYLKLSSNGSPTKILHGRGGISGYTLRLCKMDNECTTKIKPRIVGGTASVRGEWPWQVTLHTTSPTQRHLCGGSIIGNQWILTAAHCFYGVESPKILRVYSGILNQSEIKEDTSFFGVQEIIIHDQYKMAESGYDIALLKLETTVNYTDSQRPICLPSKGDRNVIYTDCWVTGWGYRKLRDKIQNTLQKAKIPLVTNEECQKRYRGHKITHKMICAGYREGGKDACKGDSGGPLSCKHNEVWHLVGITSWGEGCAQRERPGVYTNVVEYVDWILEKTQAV", "assay": "Factor XI assay, Example 4", "type": "biochemical", "details": "for F XI: Control 117", "source_text": "as §1"}, "F XII": {"target": "T3, F XII (Homo sapiens, UniProt P00748)", "T3 construct": "from tissue; host or cells: human plasma", "T3 sequence (P00748 20-615)": "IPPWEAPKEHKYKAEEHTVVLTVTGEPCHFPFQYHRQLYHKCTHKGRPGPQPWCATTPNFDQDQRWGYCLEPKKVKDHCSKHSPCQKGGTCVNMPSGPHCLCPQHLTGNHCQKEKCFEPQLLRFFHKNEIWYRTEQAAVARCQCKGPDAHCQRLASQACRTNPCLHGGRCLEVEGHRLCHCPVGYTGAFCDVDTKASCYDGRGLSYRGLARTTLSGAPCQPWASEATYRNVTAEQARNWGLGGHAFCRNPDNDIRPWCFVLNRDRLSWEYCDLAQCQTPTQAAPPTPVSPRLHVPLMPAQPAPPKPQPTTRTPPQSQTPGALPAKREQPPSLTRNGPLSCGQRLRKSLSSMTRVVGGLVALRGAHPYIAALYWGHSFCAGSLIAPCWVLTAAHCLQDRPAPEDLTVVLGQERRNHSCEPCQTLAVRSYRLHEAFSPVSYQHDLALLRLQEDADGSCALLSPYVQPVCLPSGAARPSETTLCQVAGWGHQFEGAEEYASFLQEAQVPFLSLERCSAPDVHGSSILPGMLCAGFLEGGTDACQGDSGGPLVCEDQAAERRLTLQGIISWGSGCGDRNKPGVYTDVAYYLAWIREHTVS", "assay": "Factor XII assay, Example 4", "type": "biochemical", "details": "for F XII: Control 86", "source_text": "as §1"}, "[1]": {"system": "platelet thrombus formation on damaged aortic wall", "assay": "Indium-111 platelet labelling technique in rabbits", "type": "in vivo", "details": "intravenous 72.80 mg/kg", "description": "In medicine, arterial thrombosis is diagnosable, for example, by clinical manifestations, by arteriography and, recently, by an indium 111 platelet labelling technique (see, for example, the article entitled \"Differential Effects of Two Doses of Aspirin on Platelet-Vessel Wall Interaction In Vivo\" by K. K. Wu et al being published in the Journal of Clinical Investigation, August, 1981).\nSodium bisulphite was evaluated as an anti-thrombotic agent in vivo using the indium-111 platelet labelling technique in rabbits (see the Wu et al article above cited). The material was administered by intravenous injection (72.80 milligrams per kilogram of animal body weight)."}, "Prothrombin": {"target": "T4, Prothrombin (Homo sapiens, UniProt P00734)", "T4 construct": "from tissue; host or cells: human plasma", "assay": "Prothrombin (Factor II) assay, Example 4", "type": "biochemical", "details": "for Prothrombin: Control 87", "source_text": "as §1"}, "F IX": {"target": "T5, F IX (Homo sapiens, UniProt P00740)", "T5 construct": "from tissue; host or cells: human plasma", "T5 sequence (P00740 47-461)": "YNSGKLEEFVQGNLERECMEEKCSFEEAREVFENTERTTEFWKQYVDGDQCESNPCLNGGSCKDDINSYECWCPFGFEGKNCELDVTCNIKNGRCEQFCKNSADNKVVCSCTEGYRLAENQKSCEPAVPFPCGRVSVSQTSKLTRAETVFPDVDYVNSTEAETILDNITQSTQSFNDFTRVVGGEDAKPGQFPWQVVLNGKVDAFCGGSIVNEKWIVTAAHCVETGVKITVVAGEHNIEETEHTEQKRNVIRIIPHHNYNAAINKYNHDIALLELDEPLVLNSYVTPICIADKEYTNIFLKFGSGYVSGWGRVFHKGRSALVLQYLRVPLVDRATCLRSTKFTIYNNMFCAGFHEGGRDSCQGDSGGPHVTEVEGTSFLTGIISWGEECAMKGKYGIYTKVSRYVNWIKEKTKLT", "assay": "Factor IX assay, Example 4", "type": "biochemical", "design": "F IX: unit not given beside the values", "details": "for V IX: solution D; for V IX / F IX: Control 66", "source_text": "as §1"}, "[2]": {"details": "Sodium bisulphite 0.01 mg/ml, solution D"}, "[3]": {"details": "Sodium bisulphite 0.05 mg/ml, solution D"}, "[4]": {"details": "Sodium bisulphite 0.1 mg/ml, solution D"}, "[5]": {"details": "Sodium bisulphite 0.5 mg/ml, solution D"}, "[6]": {"details": "Sodium bisulphite 1.0 mg/ml, solution D"}, "[7]": {"details": "Sodium bisulphite 5.0 mg/ml, solution D"}, "[8]": {"details": "chemical grade sodium bisulphite 0.01 mg/ml"}, "[9]": {"details": "chemical grade sodium bisulphite 0.05 mg/ml"}, "[10]": {"details": "chemical grade sodium bisulphite 0.1 mg/ml"}, "[11]": {"details": "chemical grade sodium bisulphite 0.5 mg/ml"}, "[12]": {"details": "chemical grade sodium bisulphite 1.0 mg/ml"}, "[13]": {"details": "chemical grade sodium bisulphite 5.0 mg/ml"}}, "note": "“And” between values parts separate entries of the source, which are not always exact repeats. Identical values can stand only once."}
{"substance": "Sodium bisulphite", "values": [{"measurement": "coagulation of human plasma", "setting": "human plasma", "result": "completely disrupted"}, {"measurement": "Factor V", "setting": "Factor V; [2]", "result": 74, "unit": "%"}, {"measurement": "Factor V", "setting": "Factor V; [3]", "result": 72, "unit": "%"}, {"measurement": "Factor V", "setting": "Factor V; [4]", "result": 80, "unit": "%"}, {"measurement": "Factor V", "setting": "Factor V; [5]", "result": 70, "unit": "%"}, {"measurement": "Factor V", "setting": "Factor V; [6]", "result": 60, "unit": "%"}, {"measurement": "Factor V", "setting": "Factor V; [7]", "result": 54, "unit": "%"}, {"measurement": "Factor V", "setting": "Factor V; [8]", "result": 70}, {"measurement": "Factor V", "setting": "Factor V; [9]", "result": 68}, {"measurement": "Factor V", "setting": "Factor V; [10]", "result": 68}, {"measurement": "Factor V", "setting": "Factor V; [11]", "result": 64}, {"measurement": "Factor V", "setting": "Factor V; [12]", "result": 66}, {"measurement": "Factor V", "setting": "Factor V; [13]", "result": 60}, {"measurement": "effect on Factor XI", "setting": "F XI; 0.5 mg per ml, human plasma", "result": "significant inhibitory effect"}, {"measurement": "F XI", "setting": "F XI; [2]", "result": 98, "unit": "%"}, {"measurement": "F XI", "setting": "F XI; [3]", "result": 81, "unit": "%"}, {"measurement": "F XI", "setting": "F XI; [4]", "result": 58, "unit": "%"}, {"measurement": "F XI", "setting": "F XI; [5]", "result": 27, "unit": "%"}, {"measurement": "F XI", "setting": "F XI; [6]", "result": 4, "unit": "%"}, {"measurement": "F XI", "setting": "F XI; [7]", "result": "<1", "unit": "%"}, {"measurement": "F XI", "setting": "F XI; [8]", "result": 83}, {"measurement": "F XI", "setting": "F XI; [9]", "result": 82}, {"measurement": "F XI", "setting": "F XI; [10]", "result": 55}, {"measurement": "F XI", "setting": "F XI; [11]", "result": 24}, {"measurement": "F XI", "setting": "F XI; [12]", "result": 2}, {"measurement": "F XI", "setting": "F XI; [13]", "result": "<1"}, {"measurement": "effect on Factor XII", "setting": "F XII; 0.5 mg per ml, human plasma", "result": "significant inhibitory effect"}, {"measurement": "F XII", "setting": "F XII; [2]", "result": 94, "unit": "%"}, {"measurement": "F XII", "setting": "F XII; [3]", "result": 87, "unit": "%"}, {"measurement": "F XII", "setting": "F XII; [4]", "result": 79, "unit": "%"}, {"measurement": "F XII", "setting": "F XII; [5]", "result": 17, "unit": "%"}, {"measurement": "F XII", "setting": "F XII; [6]", "result": 3, "unit": "%"}, {"measurement": "F XII", "setting": "F XII; [7]", "result": "<1", "unit": "%"}, {"measurement": "F XII", "setting": "F XII; [8]", "result": 104}, {"measurement": "F XII", "setting": "F XII; [9]", "result": 102}, {"measurement": "F XII", "setting": "F XII; [10]", "result": 75}, {"measurement": "F XII", "setting": "F XII; [11]", "result": 25}, {"measurement": "F XII", "setting": "F XII; [12]", "result": 9}, {"measurement": "F XII", "setting": "F XII; [13]", "result": "<1"}, {"measurement": "Platelet accumulation II. at normal vessel wall cpm/gm", "setting": "[1]; rabbits A, B, per gram dry weight of tissue, Control 72,140± 39,040", "result": "98,611 cpm/gm and 83,066 cpm/gm"}, {"measurement": "Platelet accumulation I. at damaged vessel wall cpm/gm", "setting": "[1]; rabbits A, B, per gram dry weight of tissue, Control 1,167,820± 21,310", "result": "133,986 cpm/gm and 146,630 cpm/gm"}, {"measurement": "Platelet accumulation II. at normal vessel wall %", "setting": "[1]; rabbits A, B, percentage of injected radioactivity per gram dry weight, Control 0.03± 0.02", "result": 0.08, "unit": "%"}, {"measurement": "Platelet accumulation I. at damaged vessel wall %", "setting": "[1]; rabbits A, B, percentage of injected radioactivity per gram dry weight, Control 0.44± 0.08, 72.8 mg/kg", "result": "0.11% and 0.15%"}, {"measurement": "reduction of accumulation of platelet thrombus at the damaged vessel wall", "setting": "[1]; rabbits", "result": 70, "unit": "%"}, {"measurement": "Prothrombin", "setting": "Prothrombin; [2]", "result": 79, "unit": "%"}, {"measurement": "Prothrombin", "setting": "Prothrombin; [3]", "result": 80, "unit": "%"}, {"measurement": "Prothrombin", "setting": "Prothrombin; [4]", "result": 72, "unit": "%"}, {"measurement": "Prothrombin", "setting": "Prothrombin; [5]", "result": 40, "unit": "%"}, {"measurement": "Prothrombin", "setting": "Prothrombin; [6]", "result": 26, "unit": "%"}, {"measurement": "Prothrombin", "setting": "Prothrombin; [7]", "result": 5, "unit": "%"}, {"measurement": "Prothrombin", "setting": "Prothrombin; [8]", "result": 88, "unit": "%"}, {"measurement": "Prothrombin", "setting": "Prothrombin; [9]", "result": 82, "unit": "%"}, {"measurement": "Prothrombin", "setting": "Prothrombin; [10]", "result": 75, "unit": "%"}, {"measurement": "Prothrombin", "setting": "Prothrombin; [11]", "result": 34, "unit": "%"}, {"measurement": "Prothrombin", "setting": "Prothrombin; [12]", "result": 25, "unit": "%"}, {"measurement": "Prothrombin", "setting": "Prothrombin; [13]", "result": 8, "unit": "%"}, {"measurement": "effect on Factor II", "setting": "Prothrombin; human plasma", "result": "mildly affected"}, {"measurement": "effect on Factor IX", "setting": "F IX; 0.5 mg per ml, human plasma", "result": "significant inhibitory effect"}, {"measurement": "V IX", "setting": "F IX; Sodium bisulphite 0.01 mg/ml", "result": 60, "unit": "%"}, {"measurement": "V IX", "setting": "F IX; Sodium bisulphite 0.05 mg/ml", "result": 52, "unit": "%"}, {"measurement": "V IX", "setting": "F IX; Sodium bisulphite 0.1 mg/ml", "result": 56, "unit": "%"}, {"measurement": "V IX", "setting": "F IX; Sodium bisulphite 0.5 mg/ml", "result": 4, "unit": "%"}, {"measurement": "V IX", "setting": "F IX; Sodium bisulphite 1.0 mg/ml", "result": 3, "unit": "%"}, {"measurement": "V IX", "setting": "F IX; Sodium bisulphite 5.0 mg/ml", "result": "<1", "unit": "%"}, {"measurement": "F IX", "setting": "F IX; [8]", "result": 49}, {"measurement": "F IX", "setting": "F IX; [9]", "result": 44}, {"measurement": "F IX", "setting": "F IX; [10]", "result": 40}, {"measurement": "F IX", "setting": "F IX; [11]", "result": 5}, {"measurement": "F IX", "setting": "F IX; [12]", "result": 1}, {"measurement": "F IX", "setting": "F IX; [13]", "result": "<1"}]}
